Assay results reported in BigSolDB 2.1.

c1ccc(-n2c(-c3cc(-c4nc5ccccc5n4-c4ccccc4)cc(-c4nc5ccccc5n4-c4ccccc4)c3)nc3ccccc32)cc1
solubility (mole fraction)
Settings | 283.15 K | 293.15 K | 303.15 K | 313.15 K | 323.15 K
in DMSO | – | 0.00119 | 0.00151 | 0.0023 | 0.0032
in THF | 0.00159 | 0.00202 | 0.00277 | 0.0042 | 0.00451
in acetonitrile | 0.000114 | 0.000135 | 0.000149 | 0.000188 | 0.000232
in chlorobenzene | 0.00588 | 0.00711 | 0.00857 | 0.00941 | 0.0111
in chloroform | 0.00762 | 0.00839 | 0.0092 | 0.01 | 0.0113
in cyclohexane | 2e-07 | 4e-07 | 6e-07 | 1.1e-06 | 1.9e-06
in ethanol | 0.000357 | 0.000437 | 0.000542 | 0.000716 | 0.000932
in ethyl acetate | 0.000711 | 0.000777 | 0.000921 | 0.0012 | 0.00174
in isopropanol | 1.11e-05 | 2.18e-05 | 3.04e-05 | 4.51e-05 | 6.88e-05
in methanol | 0.000236 | 0.000259 | 0.00029 | 0.000307 | 0.000361
in n-butanol | 0.00117 | 0.00132 | 0.00155 | 0.00167 | 0.00192
in n-hexane | 3.9e-06 | 5.8e-06 | 9.5e-06 | 1.46e-05 | 2.22e-05
